Patent US12128012B2, “Ketamine treatment for amyotrophic lateral sclerosis” (University of Kansas, priority 2020, dated 2024)

Experiments:
Type in all cases: in vivo
[1] = test system: SOD1-G93A mouse model of ALS; assay: Grip strength, hanging wire test, SOD1-G93A mice; details: 10 mg/kg and 30 mg/kg vs saline vehicle, 5 days per week from 90 days of age; data not shown
Source text: (§1) Testing can be performed in SOD1-G93A mice as follows. Body weight and grip strength during a hanging wire test can be measured 3 days a week beginning at 90 days of age (presymptomatic). Drug injections can be made immediately after motor testing. Mice can be tested until they reach end-stage as defined by loss of righting reflex for 30 seconds or if they are found dead in their cage. At death, the muscles (soleus, tibialis anterior, and diaphragm) and brains can be harvested for histological analyses. Comparisons of neuromuscular junction innervation and myosin heavy chain isoforms can be made between the treatment groups. Experiments can determine cortical motor neuronal integrity using standard histological methods.
(§2) Experiments were performed to determine the effects of daily sub-anesthetic doses (e.g., less than 100 mg/kg) of ketamine on the SOD1-G93A mouse model of ALS. The method included administering two doses of ketamine (e.g., 10 mg/kg and 30 mg/kg) and a saline vehicle to three groups of SOD1-G93A mice per day for 5 days per week beginning at 90 days of age. The method included measuring body weight, grip strength, and survival.

[2] = test system: SOD1-G93A mouse model of ALS; assay: Latency between 20% loss of body weight and death in SOD1-G93A mice; details: for latency between 20% loss of body weight and death: FIG. 3 (vehicle about 2 days)
Procedure: as §2
Additionally, the latency in days between the day in which each mouse reached 80% of its initial body weight (i.e., 20% reduction) and the day of death as defined above was calculated. […] Accordingly, higher dosages may still provide for longer latency of life, or longer life expectancy.

[3] = test system: SOD1-G93A mouse model of ALS; assay: Body weight in SOD1-G93A mice under ketamine
Source text: as §1, §2
The three groups (e.g., 12 mice per group with intraperitoneal injection): vehicle (e.g., 0), 10 mg/kg (e.g., 10), and 30 mg/kg (e.g., 30) are shown (p=0.06). […] As such, the 10 mg/kg dosage may be useful for ALS patients. […] Accordingly, increasing the amount of ketamine administered may increase the effects described herein. Any increase in life (e.g., probability of survival) can be beneficial, which may be accomplished by treatment with the ketamine compound.

[4] = test system: SOD1-G93A mouse model of ALS; assay: Survival (day of death) in SOD1-G93A mice
Source text: as §1, §2
As shown, treatment with the ketamine compound appears to provide a higher probability of survival for a longer period of time for both the 10 mg/kg and 30 mg/kg dosages (p=0.06; FIG. 2). […]

Question: For `CNC1(c2ccccc2Cl)CCCCC1=O` (stereo not shown) [ketamine, 2-(2-chlorophenyl)-2-(methylamino)cyclohexan-1-one], which “effects on grip strength using the hanging wire test” value [1] is on record?
Answer: The value was “no significant effects”.

Question: What about the “longer life expectancy than no treatment” value ([2]; 10 mg/kg vs vehicle) of the same molecule?
Answer: Its value is “about 4 days”.

Question: And the “latency between 20% loss of body weight and death” value ([2]; 10 mg/kg)?
Answer: Its value is “about 6 days”.

Question: What about the “longer life expectancy over the 10 mg/kg treatment” value ([2]; 30 mg/kg vs 10 mg/kg) of the same molecule?
Answer: The value was “about 4 days”.

Question: And the “longer life expectancy than no treatment” value ([2]; 30 mg/kg vs vehicle)?
Answer: The value was “about 8 days”.

Question: And the “latency between 20% loss of body weight and death” value ([2]; 30 mg/kg)?
Answer: Its value is “about 10 days”.

Question: What about the “latency between 20% loss of body weight and death, effect of dose” value ([2]; vehicle, 10 and 30 mg/kg, ANOVA p<0.05, FIG. 3) of the same molecule?
Answer: Its value is “statistically significant dose-dependent increase”.

Question: And the “effects on body weight” value ([3]; 10 mg/kg and 30 mg/kg vs saline vehicle, 5 days per week from 90 days of age, data not shown)?
Answer: Its value is “no significant effects”.

Question: And the “probability of survival curve for day body weight fell below 80%” value ([3]; 10 mg/kg intraperitoneal vs vehicle, FIG. 1)?
Answer: The value was “improvement in the probability of survival”.

Question: What about the “loss of body weight (muscle mass), trend in survival curve” value ([3]; 30 mg/kg intraperitoneal vs 10 mg/kg or without ketamine, FIG. 1) of the same molecule?
Answer: Its value is “delays loss of body weight (muscle mass) for a longer period of time”.

Question: What about the “survival analysis: day in which body weight fell below 80%, difference between the groups” value ([3]; vehicle, 10 mg/kg, 30 mg/kg, intraperitoneal, 12 mice per group, FIG. 1, p=0.06) of the same molecule?
Answer: Its value is “no significant difference”.

Question: What about the “probability of survival (day of death: loss of righting reflex for 30 seconds or found dead)” value ([4]; 10 mg/kg vs vehicle, FIG. 2, overall p=0.06) of the same molecule?
Answer: The value was “some improvement over the vehicle”.

Question: And the “probability of survival (day of death: loss of righting reflex for 30 seconds or found dead)” value ([4]; 30 mg/kg vs vehicle, FIG. 2, p<0.05)?
Answer: Its value is “survived significantly longer than the vehicle-treated group”.
